Measurements as given in publication PMC5589637, “New perspectives of cobalt tris(bipyridine) system: anti-cancer effect and its collateral sensitivity towards multidrug-resistant (MDR) cancers” (Oncotarget, 2017).

What was measured:
[1] = system: HeLa (cervical cancer) cells; experiment: MTT cytotoxicity assay, HeLa; assay type: cell-based; settings: 72 h
Protocol: (§1) All tested compounds were dissolved in DMSO at a final concentration of 50 mmol/L and stored at −20°C before use. Cytotoxicity was assessed by using the 3-(4,5-dimethylthiazol-2-yl)-2, 5-diphenyltetrazolium bromide (MTT) (5.0 mg/ml) assay as previously described. Briefly, 4×10^3 cells per well were seeded in 96-well plates before drug treatments. After overnight culture, the cells were then exposed to different concentrations of selected compounds ([…]) for 72 hours. Cells without drug treatment were used as control. Subsequently, MTT (10 μL) solution was added to each well and incubated at 37°C for 4 hours followed by the addition of 100 μL solubilization buffer (10%SDS in 0.01 mol/L HCl) and overnight incubation. A570 nm was then determined in each well on the next day. The percentage of cell viability was calculated using the following formula: Cell viability (%) = Atreated/Acontrol × 100. Data were obtained from three independent experiments.

[2] = system: H1975 (EGFR mutant lung cancer) cells; experiment: MTT cytotoxicity assay, H1975; assay type: cell-based; settings: 72 h
Protocol: as §1

[3] = system: A549 (EGFR wild-type lung cancer) cells; experiment: MTT cytotoxicity assay, A549; assay type: cell-based; settings: 72 h
Protocol: as §1

[4] = system: Hep3B (liver cancer) cells; experiment: MTT cytotoxicity assay, Hep 3B; assay type: cell-based; settings: 72 h
Protocol: as §1

[5] = system: A549 taxol-resistant cancer cells; experiment: MTT cytotoxicity, taxol-resistant A549; assay type: cell-based
Excerpt: (§2) All cells were obtained from the American Type Culture Collection (Rockville, MD, USA) unless otherwise specified. Immortalized wild-type and Atg7-deficient mouse embryonic fibroblasts (MEFs) were kindly provided by Professor Masaaki Komatsu (Juntendo University, School of Medicine, Japan). Taxol-resistant types of MCF-7, HCT-8, A549 cancers cells and cisplatin-resistant SGC7901 cancer cells were purchased from KeyGEN BioTECH, China. Cisplatin-sensitive or –resistant A2780, OV2008 and C13 cancer cells were kindly provided by Prof. Benjamin Tsang (Department of Obstetrics and Gynecology and Department of Cellular and Molecular Medicine, University of Ottawa, Canada). HCT116 p53^+/+ and p53^−/− isogenic human colon cancer cells were kindly provided by Professor Bert Vogelstein (Ludwig Center at Johns Hopkins, Howard Hughes Medical Institute, USA). All media were supplemented with 10% fetal bovine serum and antibiotics penicillin (50 U/ml) and streptomycin (50 μg/ml; Invitrogen, Paisley, Scotland, UK). All cell cultures were incubated at 37°C in a 5% humidified CO2 incubator.
as §1

[6] = system: A2780 cisplatin-sensitive cancer cells; experiment: MTT cytotoxicity, cisplatin-sensitive A2780; assay type: cell-based; settings: 72 h
Excerpt: as §2, §1

[7] = system: SGC-7901 cisplatin-sensitive cancer cells; experiment: MTT cytotoxicity, cisplatin-sensitive SGC-7901; assay type: cell-based; settings: 72 h
Excerpt: as §2, §1

[8] = system: OV2008 (cisplatin-sensitive) cells; experiment: MTT cytotoxicity, OV2008 (cisplatin-sensitive); assay type: cell-based; settings: 72 h, read-out: IC50 value, cisplatin-sensitive cancer, OV2008
Excerpt: as §2, §1

Atg7^+/+ wild-type MEFs = experiment: MTT cytotoxicity, Atg7 wild-type MEFs; assay type: cell-based, mouse; settings: 72 h
Excerpt: as §2, with “All media were supplemented with 10% fetal bovine serum and antibiotics penicillin (50 U/ml) and streptomycin (50 μg/ml; Invitrogen, Paisley, Scotland, UK). All cell cultures were incubated at 37°C in a 5% humidified CO2 incubator.” left out
(§3) All tested compounds were dissolved in DMSO at a final concentration of 50 mmol/L and stored at −20°C before use. Cytotoxicity was assessed by using the 3-(4,5-dimethylthiazol-2-yl)-2, 5-diphenyltetrazolium bromide (MTT) (5.0 mg/ml) assay as previously described. […] A570 nm was then determined in each well on the next day. The percentage of cell viability was calculated using the following formula: Cell viability (%) = Atreated/Acontrol × 100. […]

Atg7^−/− deficient MEFs = experiment: MTT cytotoxicity, Atg7 deficient MEFs; assay type: cell-based, mouse; settings: 72 h
Excerpt: as §2, with “All media were supplemented with 10% fetal bovine serum and antibiotics penicillin (50 U/ml) and streptomycin (50 μg/ml; Invitrogen, Paisley, Scotland, UK). All cell cultures were incubated at 37°C in a 5% humidified CO2 incubator.” left out
as §3

H1299 lung cancer cells = experiment: Cell invasion assay (ECMatrix chamber); assay type: cell-based, human; settings: H1299, 72 h, sub-lethal doses, OD 560 nm
Protocol: The H1299 cancer cell invasion assay was performed in a Cell Invasion Chamber, a 24-well tissue culture plate with cell culture inserts that contain an 8 μm pore size polycarbonate membrane over a thin layer of dried ECMatrix^TM (CHEMICON). H1299 cells (15000 cells/well) were re-suspended in serum-free medium and incubated in an invasion chamber insert with different concentrations of cobalt complex 2 for 72 hours, while the lower chamber contained medium with 10% FBS. The cells invaded through the ECM layer to the bottom of the polycarbonate membrane were labelled with Cell Stain provided in the kit for 20 min at room temperature. The non-invading cells were gently removed from the interior of the inserts by using a cotton-tipped swab. The number of invaded cells was counted through the microscope and quantified by dissolving stained cells in 10% acetic acid (200 μL/well). The colorimetric reading of the solute mixture was determined by spectrophotometer at OD 560 nm.

H1299 cell = experiment: Western blot of cell invasion markers MMP-9 and ICAM-1; assay type: cell-based, human; settings: 0.5 μM
Protocol: Western blot analysis was carried out following standard methods. Cells were lysed with RIPA lysis buffer with protease and phosphatase inhibitor cocktails. Protein concentrations were determined using the Bio-Rad protein assay (Bio-Rad Laboratories, Inc., Hercules, CA, USA). After electrophoresis, the proteins from SDS/PAGE were electro-transferred to a Hybond enhanced chemiluminescence nitrocellulose membrane (Amersham Biosciences, NJ, USA), which was then blocked with 5% dried milk for 1 hour. After washing, the blot was incubated with the indicated primary antibodies overnight at 4°C. Detection was performed using appropriated HRP-conjugated secondary antibodies for 1 hour at RT followed by chemiluminescence (Invitrogen).

[9] = system: LLC-1 Lewis lung cancer xenograft; experiment: LLC-1 xenograft tumor model; assay type: in vivo; settings: LLC-1 bearing C57BL/6 mice, 10 days
Protocol: The mice were maintained under specific pathogen-free condition in a 12-h light-dark cycle. 8-week-old C57BL/6 mice (female body weight: 22 ± 4 g and male body weight 25 ± 4g) were purchased from The Chinese University of Hong Kong. The animals were housed in a 12 hours light/dark cycles and temperature-controlled room and given ad libitum access to food and water. All of the experiments were carried out in accordance to the “Institutional Animal Care and User Committee guidelines” of the Macau University of Science and Technology. C57BL/6 were randomly grouped (10 mice per group) and intraperitoneal injected with 40 mg/kg or 80 mg/kg of cobalt complex 2 or 40 mg/kg or 80 mg/kg of water-soluble form of cobalt complex 2. Xenograft mouse model was constructed as previously described. LLC-1 Lewis lung cancer cells (1 × 10^6 cells) were subcutaneously injected in the right dorsal region of the mice. After tumors grew to about 100 mm^3, the mice were randomly divided into 3 groups: 1) the control group, 2) 40 or 80 mg/kg cobalt complex 2 group, and 3) 40 mg/kg cobalt complex 2W (water soluble form). […] The body weight of each mouse was recorded with the tumor volume determined by Vernier caliper using the formula of L × W^2 × 0.52, where Lis the longest diameter of tumor and W is the shortest diameter of tumor. […]

Cc1ccnc(-c2cc(C)ccn2)c1.Cc1ccnc(-c2cc(C)ccn2)c1.Cc1ccnc(-c2cc(C)ccn2)c1.F[P-](F)(F)(F)(F)F.F[P-](F)(F)(F)(F)F.F[P-](F)(F)(F)(F)F.[Co+3] [complex 2, [Co^III(4,4’-Me2-bpy)3](PF6)3]
IC50 [1]: 11.9 µM
IC50 [2]: 8.84 µM
IC50 [3]: 7.86 µM
IC50 [4]: 3.7 µM
IC50 ([5]; A549 taxol-resistant, MTT, 72 h): 2.85 µM
Resistant Factor, A549 ([5]; IC50 of taxol-resistant cells over IC50 of taxol-sensitive cells, A549): 0.25
IC50 [6]: 12.3 µM
IC50 [7]: 11.1 µM
IC50 [8]: 7.62 µM
IC50 (Atg7^+/+ wild-type MEFs): 4.84 µM
IC50 (Atg7^−/− deficient MEFs): 14 µM
cell invasion (absorbance signal of invaded cells) (H1299 lung cancer cells): dose-dependently decrease the absorbance signal
expression of MMP-9 and ICAM-1 (H1299 cell): significantly downregulated
reduction in tumor volume ([9]; IP 40 mg/kg/day or 80 mg/kg/day, P < 0.05): up to 50%
body weight ([9]; IP daily): no significant reduction in body weight
